Laboratory results from patent publication US20090281093A1, “ANTI-INFLAMMATORY COMPOUNDS” (C.T.G. PHARMA S.R.L., priority 2005, published 2009).

Test: Activity and safety: five-day once daily gavage treatment of rats, deaths and autopsy of the gastrointestinal tract
Format: in vivo
Details: male rats, once daily by gavage for five days, diclofenac 20 mg/kg, compound of example 1 36 mg/kg; for % deaths: 10 animals/group; for % gastrointestinal ulcer: autopsy at fifth day 6 hr after treatment
Experimental: Thirty male rats (150-200 g) were divided into three groups of 10 animals/group and treated with vehicle, diclofenac (20 mg/kg) and the compound of example 1 (36 mg/kg) for five days once daily by gavage. The vehicle consisted in 1 mL of acidified aqueous solution. At the fifth day, survival animals were sacrificed 6 hr after the treatment, by an overdose of ether, and autopsied to detect any pathological changes, particularly in the gastrointestinal tract. Prostaglandin E2 was evaluated in the liver homogenate by standard enzyme immunoassay procedure as described by Warner T D et al. (J.P.E.T. 2004, 310, 642-7).

Row | Structure (SMILES) | % deaths [%] | % gastrointestinal ulcer [%]
1 | O=C(O)Cc1ccccc1Nc1c(Cl)cccc1Cl [Diclofenac] | 70 | 100
2 | O=C(Cc1ccccc1Nc1c(Cl)cccc1Cl)Oc1ccc(-c2cc(=S)ss2)cc1 [Compound example 1, 2-[(2,6-dichlorophenyl)amino]benzeneacetic acid 4-(3H-1,2,dithiole-3-thione-5-yl)-phenyl ester] | 0 | 0
